Earlier results, collected in patent US8618300B2, “Indolizine inhibitors of leukotriene production” (Boehringer Ingelheim International GmbH, priority 2008, dated 2013).

Assays:
[1] = test system: biomarkers for myocardial infarction risk; settings: clinical trials; cited from earlier work
human glomerulonephritis = settings: clinical trial; cited from earlier work
[2] = test system: apoE/LDL-R double knockout mice; settings: oral dosing, high-fat diet from 2 months of age to 6 months; cited from earlier work
[3] = test system: ApoE^−/−×CD4 dnTβRII mice; settings: infusion, treated for four weeks after 12 weeks plaque growth; cited from earlier work

O=C(O)[C@@H](c1ccc(OCc2ccc3ccccc3n2)cc1)C1CCCC1 [DG-031]
effect on biomarkers for myocardial infarction risk [1]: dose-dependent suppression of biomarkers

CC(C)(C)Sc1c(CC(C)(C)C(=O)O)n(Cc2ccc(Cl)cc2)c2ccc(OCc3ccc4ccccc4n3)cc12 [MK-591]
effect on proteinuria (human glomerulonephritis): useful for reducing proteinuria

CC(C)c1ccc2c(c1)c(SC(C)(C)C)c(CC(C)(C)C(=O)O)n2Cc1ccc(Cl)cc1 [MK-886]
decrease in plaque coverage in the aorta [2]: 56%
decrease in plaque coverage in the aortic root [2]: 43%
decrease in plaque area in the aortic root [3]: ~40%
